Assay results reported in patent US20240082271A1, “Methods of Treatment of Fibrotic Diseases” (PHOST’IN THERAPEUTICS, priority 2021, published 2024).

Assays:
NIH3T3 fibroblasts = experiment: Wound healing (scratch) inhibition test in presence of TGFβ; assay type: cell-based; details: 1 μM tested compound, 24 h, in presence of TGFβ 5 ng/ml
Protocol: NIH3T3 fibroblasts were seeded at 40 000 cells per cm2 in a 24 well plate, DMEM+10% FBS.
Before wound/treatment, cells were washed twice in DMEM without serum then incubated in the appropriate condition DMEM+2.5% FBS, TGFβ+/−, PST3.1+/−.
TGFβ 5 ng/ml; PST3.1 1 μM, n=6 wells per treatment.
At t0, cell layer is scratched using a needle and observed under microscope to take 3 pictures per well using a scale measure referential to measure width of the scratch using imageJ software.
After 24 h of incubation in the desired condition, scratch is measured under microscope by taking 3 pictures at the same scale using the same referential.
Data are treated by calculating percentage of closing.

[1] = test system: SNx rats (renal fibrosis); experiment: Kidney fibrosis model: 5/6 subtotal nephrectomy (SNx) rats, histological and immunohistochemical staining of kidney sections; assay type: in vivo, Sprague-Dawley rats
From the text: Male Sprague-Dawley rats underwent ⅚ subtotal nephrectomy (SNx) and were used as the kidney fibrosis model, since SNx rats developed tubulointerstitial fibrosis. During this surgery, the right kidney is removed and 2 of the 3 branches of the left renal artery are ligated in order to necrose ⅔ of the kidney. The control kidney is right kidney before nephrectomy. Tubulointerstitial renal fibrosis inevitably leads to renal function deterioration and failure, independently of the primary renal disease. It is worth noting that in SNx rats, plasmatic creatinine concentration increases from 25.7±1.3 μM to 120.0±33.0 μM. Sirius red staining highlights fibrosis by staining collagens in paraffin-embedded kidney tissue sections. Five micrometer-thick sections were cut and mounted on glass slides. Slides were deparaffinized and stained with Sirius red for evaluation of collagen localization. […] The sections were mounted in Entelan mounting medium and examined under microscope. For each sample, quantification was performed with Image J software on pictures taken from 10 fields of kidney sections at 200-fold magnification. The staining area was measured on kidney section fields. Immunohistochemical analyses of kidney sections were also performed using paraffin sections. The primary antibody, anti-Mgat5 was incubated overnight at 4° C. Revelation was performed with Universal vectastain ABC kit and ImmPACT AE following the instructions of suppliers, Vector Laboratories. Then, the sections were mounted in an aqueous mounting medium, VectaMount™ AQ and examined under microscope (Nikon Eclipse TE300). Quantification was carried out as for histological staining.
Compound 3.1 was orally administered to control rats and SNx rats (as above described) at 20 mg/kg daily per 28 days. A control was carried out with a vehicle (without compound 3.1) administered in the same manner as compound 3.1. Sprague Dawley rats will be used. The rats will be fed ad libitum and will be placed in a 12 hour light, 12 hour dark cycle. They will be divided 3 per cage. Some rats undergo ⅚ subtotal nephrectomy (SNx) to develop chronic kidney failure which will lead to the development of renal fibrosis. The 3.1a treatment was administered to the rats on the day of nephrectomy and continued for the entire protocol. It is delivered as a nanosuspension diluted in drinking water. Control rats receive the solvent alone (placebo). Histological and immunohistochemical methods were monitored as described in example 1.

MGAT5 activity = experiment: L-PHA lectin staining of kidney sections as glycans marker of MGAT5 activity in SNx rats; assay type: in vivo, Sprague-Dawley rats; details: treated SNx rats, 20 mg/kg daily oral, 4 weeks
From the text: Male Sprague-Dawley rats underwent ⅚ subtotal nephrectomy (SNx) and were used as the kidney fibrosis model, since SNx rats developed tubulointerstitial fibrosis. During this surgery, the right kidney is removed and 2 of the 3 branches of the left renal artery are ligated in order to necrose ⅔ of the kidney. The control kidney is right kidney before nephrectomy. Tubulointerstitial renal fibrosis inevitably leads to renal function deterioration and failure, independently of the primary renal disease. It is worth noting that in SNx rats, plasmatic creatinine concentration increases from 25.7±1.3 μM to 120.0±33.0 μM. Sirius red staining highlights fibrosis by staining collagens in paraffin-embedded kidney tissue sections. Five micrometer-thick sections were cut and mounted on glass slides. […] For each sample, quantification was performed with Image J software on pictures taken from 10 fields of kidney sections at 200-fold magnification. The staining area was measured on kidney section fields. […] Quantification was carried out as for histological staining.
Compound 3.1 was orally administered to control rats and SNx rats (as above described) at 20 mg/kg daily per 28 days. […] Histological and immunohistochemical methods were monitored as described in example 1.
Glycosylation resulting from MGAT5 activity will be specifically measured by L-PHA lectin staining. […]

[2] = test system: STAM NASH model mice (liver fibrosis); experiment: STAM NASH model mice, Sirius red-stained liver fibrosis area and tolerability; assay type: in vivo; details: for Sirius red positive area (fibrosis area) of liver sections: PO 6-9 wks of age, compound 3.1 15 mg/kg BID, Telmisartan 10 mg/kg QD, mean±SD, p<0.01 vs vehicle
From the text: The STAM model (developed and standardized by SMC Laboratories, Japan https://www.smccro-lab.com/) is a model that recapitulates the same disease progression as human nonalcoholic steatohepatitis (NASH) and hepatocellular carcinoma (HCC): in 25% of affected patients (i.e. 20%-25% of the adult population), nonalcoholic fatty liver disease progresses to NASH, which increases the risk for the development of cirrhosis, liver failure, and hepatocellular carcinoma. In patients with NASH, liver fibrosis is the main determinant of mortality (https://doi.org/10.1053/j.gastro.2019.11.311). In this model, male C57BL/6 mice aged two days are given a single dose of streptozotocin to reduce insulin secretory capacity. When the mice turn four weeks of age they start a high-fat diet feeding. This model has a background of late type 2 diabetes which progresses into fatty liver, NASH, fibrosis and consequently liver cancer (HCC). Compared to other NASH-HCC model mice, the disease progresses in a relatively short period of time, and liver cancer is developed in 100% of animals at 20 weeks of age.
C57BL/6JJmsSlc mice (14-day-pregnant female) were obtained from Japan SLC, Inc. (Japan). Two days after birth, NASH is induced in male mice by a single subcutaneous injection of 200 μg streptozotocin (STZ, Sigma-Aldrich, USA) solution and feeding with high fat diet (HFD, 57 kcal % fat, Cat #HFD32, CLEA Japan, Inc., Japan) after 4 weeks of age. Sterilized solid HFD is provided ad libitum, and replaced once every 2 days according to the manufacturer's instructions. Then, NASH model mice are divided into 3 randomized groups of 10 mice at 6 weeks of age based on their body weight the day before the start of treatment. The randomization was performed by body weight-stratified random sampling using Excel software. NASH model mice were stratified by their body weight to get SD and the difference in the mean weights among groups as small as possible.
Group 1: Vehicle (10 NASH mice orally administered with Placebo nanosuspension in a volume of 10 mL/kg twice daily from 6 to 9 weeks of age).
Group 2: Compound 3.1 (PST3.1) ((10 NASH mice orally administered with compound 3.1 nanosuspension at a dose of 15 mg/kg in a volume of 10 mL/kg twice daily (2*15 mg/kg/day) from 6 to 9 weeks of age).
Group 3: Telmisartan (10 NASH mice will be orally administered vehicle supplemented with Telmisartan at a dose of 10 mg/kg once daily in a volume of 10 mL/kg from 6 to 9 weeks of age). Vehicle and compound 3.1 were provided by Phost'in Therapeutics SAS. Telmisartan (Micardis®) was purchased from Boehringer Ingelheim GmbH (Germany).
After 3 weeks of treatment mice were sacrificed, whole liver were collected and washed with cold saline. Individual whole liver (parietal side and visceral side) was taken photos. Liver weight were measured and liver-to-body weight ratio were calculated. The left lateral lobes of livers will be separated and dissected as described in FIG. 6, and stored as described below: • a: Liver specimens were stored at −80° C. embedded in Optimal Cutting Temperature (O.C.T., Sakura Finetek Japan, Japan) compound. • b: Liver specimens were fixed in Bouin's solution (Sigma-Aldrich, Japan) for 24 hours. After fixation, these specimens were proceeded to paraffin embedding for Sirius red-staining. • c: Liver specimens were snap frozen in liquid nitrogen and stored at −80° C.
Sections were cut from paraffin blocks of liver tissue using the rotary microtome (Leica Microsystems). […]

[3] = 15 mg/kg PO BID, 3 weeks of treatment

CC1(C)OC[C@H](C2O[P@@](=O)(c3ccccc3)[C@H](NCc3ccccc3)[C@H]3OC(C)(C)O[C@@H]23)O1 (stereo partly drawn) [Compound 3.3, (3aR,6S,7S,7aS)-7-(benzylamino)-4-((R)-2,2-dimethyl-1,3-dioxolan-4-yl)-2,2-dimethyl-6-phenyltetrahydro-[1,3]dioxolo[4,5-d][1,2]oxaphosphinine 6-oxide]
% inhibition of wound healing (NIH3T3 fibroblasts): 29.8%

O=[P@@]1(c2ccccc2)O[C@H](COCc2ccccc2)[C@@H](OCc2ccccc2)[C@H](OCc2ccccc2)C1O (stereo partly shown) [Compound 3.1, 3-Hydroxy-4,5-bis-benzyloxy-6-benzyloxymethyl-2-phenyl-2-oxo-2λ5-[1,2]oxaphosphinane]
fibrosis, Sirius red staining area of kidney sections ([1]; SNx rats treated, 20 mg/kg daily oral, 4 weeks): 5.8±1.2%
plasma/serum creatinine concentration ([1]; SNx treated rats vs SNx rats on placebo, 20 mg/kg daily oral, at 4 weeks): lower serum creatinine
treatment effect on collagen III in controls ([1]; control (non-nephrectomized) rats, 20 mg/kg daily oral, 4 weeks): no treatment effect
effect of treatment on fibrosis (Sirius red) ([1]; healthy animals or SNx, 4 weeks): no significant effect
collagen I expression, kidney immunostaining ([1]; treated SNx rats, 20 mg/kg daily oral, 4 weeks, p=0.014 vs untreated SNx): 1.3±0.3%
collagen IV expression, kidney immunostaining ([1]; treated SNx rats, 20 mg/kg daily oral, 4 weeks, p=0.015 vs untreated SNx): 6.4±0.3%
collagen III level, kidney immunostaining ([1]; treated SNx rats, 20 mg/kg daily oral, 4 weeks, p=0.27 vs untreated SNx): 4.0±0.3%
PHA-L staining of kidney sections (MGAT5 activity): 5.1±0.5%
% inhibition of wound healing (NIH3T3 fibroblasts): 42.0%
body weight loss [2, 3]: no body weight loss
clinical signs [2, 3]: no clinical signs
death [2, 3]: no death
Sirius red positive area (fibrosis area) of liver sections [2]: 0.47±0.12%

c1ccc(CN[C@@H]2[C@@H](OCc3ccccc3)[C@H](OCc3ccccc3)[C@@H](COCc3ccccc3)O[P@@]2c2ccccc2)cc1 [Compound 4.6, (2S,3S,4S,5S,6R)-3-(benzylamino)-4,5-bis(benzyloxy)-6-((benzyloxy)methyl)-2-phenyl-1,2-oxaphosphinane]
% inhibition of wound healing (NIH3T3 fibroblasts): 29.3%

CC(=O)N[C@@H]1[C@@H](OCc2ccccc2)[C@H](OCc2ccccc2)[C@@H](COCc2ccccc2)O[P@@]1(=O)c1ccccc1 [Compound 2.2, N-((2S,3S,4S,5S,6R)-4,5-bis(benzyloxy)-6-((benzyloxy)methyl)-2-oxido-2-phenyl-1,2-oxaphosphinan-3-yl)acetamide]
% inhibition of wound healing (NIH3T3 fibroblasts): 28.7%

CC1(C)OC[C@H](C2O[P@](=O)(c3ccccc3)[C@@H](OC(=O)c3ccccc3)[C@H]3OC(C)(C)O[C@@H]23)O1 (stereo partly drawn) [Compound 4.2, (3aR,6R,7R, 7aS)-4-((R)-2,2-dimethyl-1,3-dioxolan-4-yl)-2,2-dimethyl-6-oxido-6-phenyltetrahydro-[1,3]dioxolo[4,5-d][1,2]oxaphosphinin-7-yl benzoate]
% inhibition of wound healing (NIH3T3 fibroblasts): 17.2%

CCCc1nc2c(C)cc(-c3nc4ccccc4n3C)cc2n1Cc1ccc(-c2ccccc2C(=O)O)cc1 [Telmisartan, reference compound]
Sirius red positive area (fibrosis area) of liver sections [2]: 0.50±0.24%

O=[P@@]1(c2ccc(Oc3ccccc3)cc2)O[C@H](COCc2ccccc2)[C@@H](OCc2ccccc2)[C@H](OCc2ccccc2)[C@H]1O [Compound 3.0, (2S,3S,4S,5S,6R)-4,5-bis(benzyloxy)-6-((benzyloxy)methyl)-3-hydroxy-2-(4-phenoxyphenyl)-1,2-oxaphosphinane 2-oxide]
% inhibition of wound healing (NIH3T3 fibroblasts): 23.0%
